Measurements as given in PubChem BioAssay (NCI).
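How tested: cells in 96-well plates exposed to compound for 48 hours at five concentrations. At the TGI there is no net growth.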

Key:
Assay in all cases: DTP human tumour cell line panel, 48 h
786-0 renal = system: 786-0 renal
A498 renal = system: A498 renal
A549 NSCLC = system: A549 NSCLC
ACHN renal = system: ACHN renal
CAKI-1 renal = system: CAKI-1 renal
CCRF-CEM leukemia = system: CCRF-CEM leukemia
COLO 205 colon = system: COLO 205 colon
DU-145 prostate = system: DU-145 prostate
EKVX NSCLC = system: EKVX NSCLC
HCC-2998 colon = system: HCC-2998 colon
HCT-116 colon = system: HCT-116 colon
HCT-15 colon = system: HCT-15 colon
HOP-62 NSCLC = system: HOP-62 NSCLC
HOP-92 NSCLC = system: HOP-92 NSCLC
HS 578T breast = system: HS 578T breast
HT29 colon = system: HT29 colon
IGROV1 ovarian = system: IGROV1 ovarian
K-562 leukemia = system: K-562 leukemia
KM12 colon = system: KM12 colon
LOX IMVI melanoma = system: LOX IMVI melanoma
M14 melanoma = system: M14 melanoma
MALME-3M melanoma = system: MALME-3M melanoma
MCF7 breast = system: MCF7 breast
MDA-MB-231 breast = system: MDA-MB-231 breast
MDA-MB-435 = system: MDA-MB-435
MDA-N = system: MDA-N
MOLT-4 leukemia = system: MOLT-4 leukemia
NCI-H226 lung = system: NCI-H226 lung
NCI-H23 lung = system: NCI-H23 lung
NCI-H460 lung = system: NCI-H460 lung
NCI-H522 lung = system: NCI-H522 lung
NCI/ADR-RES ovarian = system: NCI/ADR-RES ovarian
OVCAR-3 ovarian = system: OVCAR-3 ovarian
OVCAR-4 ovarian = system: OVCAR-4 ovarian
OVCAR-5 ovarian = system: OVCAR-5 ovarian
OVCAR-8 ovarian = system: OVCAR-8 ovarian
PC-3 prostate = system: PC-3 prostate
RPMI-8226 leukemia = system: RPMI-8226 leukemia
RXF 393 renal = system: RXF 393 renal
SF-268 CNS = system: SF-268 CNS
SF-295 CNS = system: SF-295 CNS
SF-539 CNS = system: SF-539 CNS
SK-MEL-2 melanoma = system: SK-MEL-2 melanoma
SK-MEL-28 melanoma = system: SK-MEL-28 melanoma
SK-MEL-5 melanoma = system: SK-MEL-5 melanoma
SK-OV-3 ovarian = system: SK-OV-3 ovarian
SN12C renal = system: SN12C renal
SNB-19 CNS = system: SNB-19 CNS
SNB-75 CNS = system: SNB-75 CNS
SW-620 colon = system: SW-620 colon
T-47D breast = system: T-47D breast
TK-10 renal = system: TK-10 renal
U251 CNS = system: U251 CNS
UACC-257 melanoma = system: UACC-257 melanoma
UACC-62 melanoma = system: UACC-62 melanoma
UO-31 renal = system: UO-31 renal
HL-60(TB) leukemia = system: HL-60(TB) leukemia
SR leukemia = system: SR leukemia

**Q.** Which TGI (786-0 renal) does the source give for Clc1ccc(C2ON=C(c3ccccc3)N2C23CC4CC(CC(C4)C2)C3)c(Cl)c1 (configuration not stated) here?
**A.** The TGI was over 10 µM.

**Q.** And the TGI (A498 renal)?
**A.** Its TGI is over 10 µM.

**Q.** And the TGI (A549 NSCLC)?
**A.** Its TGI is over 10 µM.

**Q.** What about the TGI (ACHN renal) of the same compound?
**A.** Its TGI is over 10 µM.

**Q.** What about the TGI (CAKI-1 renal) of the same compound?
**A.** The TGI was over 10 µM.

**Q.** And the TGI (CCRF-CEM leukemia)?
**A.** The TGI was over 10 µM.

**Q.** And the TGI (COLO 205 colon)?
**A.** Its TGI is over 10 µM.

**Q.** What about the TGI (DU-145 prostate) of the same compound?
**A.** Its TGI is over 10 µM.

**Q.** What about the TGI (EKVX NSCLC) of the same compound?
**A.** Its TGI is over 10 µM.

**Q.** What about the TGI (HCC-2998 colon) of the same compound?
**A.** Its TGI is over 10 µM.

**Q.** And the TGI (HCT-116 colon)?
**A.** The TGI was over 10 µM.

**Q.** What about the TGI (HCT-15 colon) of the same compound?
**A.** The TGI was over 10 µM.

**Q.** What about the TGI (HOP-62 NSCLC) of the same compound?
**A.** The TGI was over 10 µM.

**Q.** And the TGI (HOP-92 NSCLC)?
**A.** Its TGI is over 10 µM.

**Q.** And the TGI (HS 578T breast)?
**A.** The TGI was over 10 µM.

**Q.** What about the TGI (HT29 colon) of the same compound?
**A.** The TGI was over 10 µM.

**Q.** What about the TGI (IGROV1 ovarian) of the same compound?
**A.** The TGI was over 10 µM.

**Q.** What about the TGI (K-562 leukemia) of the same compound?
**A.** The TGI was over 10 µM.

**Q.** What about the TGI (KM12 colon) of the same compound?
**A.** Its TGI is over 10 µM.

**Q.** And the TGI (LOX IMVI melanoma)?
**A.** The TGI was over 10 µM.

**Q.** And the TGI (M14 melanoma)?
**A.** The TGI was over 10 µM.

**Q.** And the TGI (MALME-3M melanoma)?
**A.** The TGI was over 10 µM.

**Q.** And the TGI (MCF7 breast)?
**A.** The TGI was over 10 µM.

**Q.** What about the TGI (MDA-MB-231 breast) of the same compound?
**A.** Its TGI is over 10 µM.

**Q.** What about the TGI (MDA-MB-435) of the same compound?
**A.** Its TGI is over 10 µM.

**Q.** And the TGI (MDA-N)?
**A.** The TGI was over 10 µM.

**Q.** And the TGI (MOLT-4 leukemia)?
**A.** Its TGI is over 10 µM.

**Q.** What about the TGI (NCI-H226 lung) of the same compound?
**A.** Its TGI is over 10 µM.

**Q.** And the TGI (NCI-H23 lung)?
**A.** The TGI was over 10 µM.

**Q.** And the TGI (NCI-H460 lung)?
**A.** Its TGI is over 10 µM.

**Q.** And the TGI (NCI-H522 lung)?
**A.** The TGI was over 10 µM.

**Q.** What about the TGI (NCI/ADR-RES ovarian) of the same compound?
**A.** The TGI was over 10 µM.

**Q.** What about the TGI (OVCAR-3 ovarian) of the same compound?
**A.** The TGI was over 10 µM.

**Q.** What about the TGI (OVCAR-4 ovarian) of the same compound?
**A.** Its TGI is over 10 µM.

**Q.** What about the TGI (OVCAR-5 ovarian) of the same compound?
**A.** Its TGI is over 10 µM.

**Q.** And the TGI (OVCAR-8 ovarian)?
**A.** The TGI was over 10 µM.

**Q.** And the TGI (PC-3 prostate)?
**A.** The TGI was over 10 µM.

**Q.** And the TGI (RPMI-8226 leukemia)?
**A.** The TGI was over 10 µM.

**Q.** What about the TGI (RXF 393 renal) of the same compound?
**A.** The TGI was over 10 µM.

**Q.** What about the TGI (SF-268 CNS) of the same compound?
**A.** Its TGI is over 10 µM.

**Q.** And the TGI (SF-295 CNS)?
**A.** The TGI was over 10 µM.

**Q.** What about the TGI (SF-539 CNS) of the same compound?
**A.** Its TGI is over 10 µM.

**Q.** And the TGI (SK-MEL-2 melanoma)?
**A.** Its TGI is over 10 µM.

**Q.** What about the TGI (SK-MEL-28 melanoma) of the same compound?
**A.** Its TGI is over 10 µM.

**Q.** What about the TGI (SK-MEL-5 melanoma) of the same compound?
**A.** Its TGI is over 10 µM.

**Q.** What about the TGI (SK-OV-3 ovarian) of the same compound?
**A.** Its TGI is over 10 µM.

**Q.** What about the TGI (SN12C renal) of the same compound?
**A.** The TGI was over 10 µM.

**Q.** What about the TGI (SNB-19 CNS) of the same compound?
**A.** The TGI was over 10 µM.

**Q.** What about the TGI (SNB-75 CNS) of the same compound?
**A.** The TGI was over 10 µM.

**Q.** What about the TGI (SW-620 colon) of the same compound?
**A.** The TGI was over 10 µM.

**Q.** What about the TGI (T-47D breast) of the same compound?
**A.** Its TGI is over 10 µM.

**Q.** And the TGI (TK-10 renal)?
**A.** Its TGI is over 10 µM.

**Q.** And the TGI (U251 CNS)?
**A.** The TGI was over 10 µM.

**Q.** And the TGI (UACC-257 melanoma)?
**A.** The TGI was over 10 µM.

**Q.** What about the TGI (UACC-62 melanoma) of the same compound?
**A.** Its TGI is over 10 µM.

**Q.** What about the TGI (UO-31 renal) of the same compound?
**A.** Its TGI is over 10 µM.

**Q.** Which results are given for CC1(C)CC(=O)c2c(nc3c(ccc4ccccc43)c2-c2ccc(NC(=O)CCCC(=O)Nc3ccc(-c4c5c(nc6c4ccc4ccccc46)CC(C)(C)CC5=O)cc3)cc2)C1?
**A.** TGI (786-0 renal): > 100 µM; TGI (A549 NSCLC): > 100 µM; TGI (ACHN renal): > 100 µM; TGI (CAKI-1 renal): > 100 µM; TGI (CCRF-CEM leukemia): > 100 µM; TGI (COLO 205 colon): > 100 µM; TGI (DU-145 prostate): > 100 µM; TGI (EKVX NSCLC): > 100 µM; TGI (HCT-116 colon): > 100 µM; TGI (HCT-15 colon): > 100 µM; TGI (HL-60(TB) leukemia): > 100 µM; TGI (HOP-62 NSCLC): > 100 µM; TGI (HS 578T breast): > 100 µM; TGI (HT29 colon): > 100 µM; TGI (IGROV1 ovarian): > 100 µM; TGI (K-562 leukemia): > 100 µM; TGI (KM12 colon): > 100 µM; TGI (LOX IMVI melanoma): > 100 µM; TGI (M14 melanoma): > 100 µM; TGI (MCF7 breast): > 100 µM; TGI (MDA-MB-231 breast): > 100 µM; TGI (MDA-MB-435): > 100 µM; TGI (MDA-N): > 100 µM; TGI (MOLT-4 leukemia): > 100 µM; TGI (NCI-H226 lung): > 100 µM; TGI (NCI-H460 lung): > 100 µM; TGI (NCI-H522 lung): > 100 µM; TGI (NCI/ADR-RES ovarian): > 100 µM; TGI (OVCAR-3 ovarian): > 100 µM; TGI (OVCAR-5 ovarian): > 100 µM; TGI (OVCAR-8 ovarian): > 100 µM; TGI (PC-3 prostate): > 100 µM; TGI (RPMI-8226 leukemia): > 100 µM; TGI (RXF 393 renal): > 100 µM; TGI (SF-268 CNS): > 100 µM; TGI (SF-295 CNS): > 100 µM; TGI (SF-539 CNS): > 100 µM; TGI (SK-MEL-2 melanoma): > 100 µM; TGI (SK-MEL-28 melanoma): > 100 µM; TGI (SK-MEL-5 melanoma): > 100 µM; TGI (SK-OV-3 ovarian): > 100 µM; TGI (SN12C renal): > 100 µM; TGI (SNB-19 CNS): > 100 µM; TGI (SNB-75 CNS): > 100 µM; TGI (SR leukemia): > 100 µM; TGI (SW-620 colon): > 100 µM; TGI (T-47D breast): > 100 µM; TGI (TK-10 renal): > 100 µM; TGI (U251 CNS): > 100 µM; TGI (UACC-257 melanoma): > 100 µM; TGI (UO-31 renal): > 100 µM
